Patent publication US10604526B2, “Chemokine receptor modulators and uses thereof” (RAPT THERAPEUTICS, INC., priority 2016, dated 2020)

Each molecule was assayed against T1, hCCR4 (Homo sapiens, UniProt P51679) (assay: Calcium flux assay). Conditions: Chem5-hCCR4 cells, CCL22 at EC80 of 1.5 nM, FLIPR Calcium 6 dye; read-out: Potency (IC50).
T1 sequence (P51679 1-360): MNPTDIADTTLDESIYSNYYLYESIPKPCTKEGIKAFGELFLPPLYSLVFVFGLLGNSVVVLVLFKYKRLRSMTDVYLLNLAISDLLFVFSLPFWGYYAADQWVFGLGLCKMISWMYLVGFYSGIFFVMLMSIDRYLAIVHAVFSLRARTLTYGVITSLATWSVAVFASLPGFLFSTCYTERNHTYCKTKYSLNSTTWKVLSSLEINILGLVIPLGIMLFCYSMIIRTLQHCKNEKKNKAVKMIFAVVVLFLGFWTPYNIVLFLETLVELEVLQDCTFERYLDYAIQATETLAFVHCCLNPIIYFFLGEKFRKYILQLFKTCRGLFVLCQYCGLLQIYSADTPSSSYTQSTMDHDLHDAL
Format: cell-based
Procedure: Calcium Flux Assay. Compounds were evaluated in a calcium flux assay substantially performed as follows. Chem5-hCCR4 cells (EMD Millipore, Hayward, Calif.; HTS009C) were cultured under standard conditions and frozen in aliquots of 10×10^6 cells/mL. The day prior to compound testing, a vial was rapidly thawed and pipetted into 20 mL media (DMEM+10% FBS+1% Pen-Strep+1% L-glutamine). Cells were harvested by centrifugation and re-suspended in fresh culture medium. 25 μL of cell suspension was seeded into 384-well plates (Corning, Tewksbury, Mass.; CellBind with black wall/clear bottom). The plates were centrifuged at 300 g for 10 seconds and incubated overnight at 37° C. and 5% CO2. The day of compound testing, media was removed from the plates and 25 μL serum free media was added to each well. Plates were returned to the incubator for 2 h. 25 μL assay buffer (Hank's balanced salt solution+20 mM HEPES pH 7.4) containing FLIPR Calcium 6 dye (Molecular Devices, Sunnyvale, Calif.; # R8191) and probenecid (2.5 mM) was added to each well and incubated at 37° C. and 5% CO2 for 2 h. Compounds in DMSO were added to the plates using an HP D300e digital dispenser, and all wells were normalized to contain 0.25 μL (0.5%) DMSO. Plates were incubated for 1 hour at 37° C. and 5% CO2. CCL22 (Peprotech; Rockyhill, N.J.) was diluted in assay buffer containing 0.1% BSA to 7.5 nM (corresponding to 5×EC80 of 1.5 nM).
Assay plates and working solution of CCL22 were transferred to the FlexStation plate reader (Molecular Devices) at 37° C. for 5 min of equilibration. Fluorescence recordings at 485 excitation/525 emission were performed at 2.5 second intervals. At t=16 seconds, 12.5 μL of CCL22 solution was added to each well and reads continued for 30 seconds at 2.5 second intervals. The minimum fluorescence (Fmin) was calculated by averaging the reads prior to ligand addition and the change in fluorescence (ΔF) was calculated by subtracting the Fmin from the average of the reads following ligand addition. The response ΔF/Fmin was plotted as a function of the compound concentration and the IC50 values were determined by non-linear regression analysis using a 4-parameter fit in either PRISM software (GraphPad; La Jolla, Calif.) or Dotmatics Browser.

| Molecule | IC50 [µM] |
| --- | --- |
| 1-((R)-1-(2,4-Dichlorophenyl)ethyl)-6-(3-((S)-1-(2-hydroxyethyl)piperidin-3-yl)azetidin-1-yl)-1H-pyrazolo[3,4-b]pyrazine-3-carbonitrile and 1-((S)-1-(2,4-dichlorophenyl)ethyl)-6-(3-((S)-1-(2-hydroxyethyl)piperidin-3-yl)azetidin-1-yl)-1H-pyrazolo[3,4-b]pyrazine-3-carbonitrile [Example 34] | < 0.1 |
| 1-((R)-1-(2,4-Dichlorophenyl)ethyl)-6-(3-((S)-1-(2-hydroxyethyl)piperidin-3-yl)azetidin-1-yl)-1H-pyrazolo[3,4-b]pyrazine-3-carboxamide and 1-((S)-1-(2,4-dichlorophenyl)ethyl)-6-(3-((S)-1-(2-hydroxyethyl)piperidin-3-yl)azetidin-1-yl)-1H-pyrazolo[3,4-b]pyrazine-3-carboxamide [Example 41] | < 0.1 |
| 1-((R)-1-(2,4-dichlorophenyl)ethyl)-6-(3-((R)-1-((R)-4-hydroxybutan-2-yl)piperidin-3-yl)azetidin-1-yl)-1H-pyrazolo[3,4-b]pyrazine-3-carbonitrile and 1-((R)-1-(2,4-dichlorophenyl)ethyl)-6-(3-((R)-1-((S)-4-hydroxybutan-2-yl)piperidin-3-yl)azetidin-1-yl)-1H-pyrazolo[3,4-b]pyrazine-3-carbonitrile [Example 82] | < 0.1 |
| 1-((R)-1-(2,4-dichlorophenyl)ethyl)-6-(3-((S)-1-((R)-4-hydroxybutan-2-yl)piperidin-3-yl)azetidin-1-yl)-1H-pyrazolo[3,4-b]pyrazine-3-carbonitrile and 1-((R)-1-(2,4-dichlorophenyl)ethyl)-6-(3-((S)-1-((S)-4-hydroxybutan-2-yl)piperidin-3-yl)azetidin-1-yl)-1H-pyrazolo[3,4-b]pyrazine-3-carbonitrile [Example 83] | 0.1 to 0.5 |
| 4-((S)-3-(1-(1-((R)-1-(2,4-Dichlorophenyl)ethyl)-3-methyl-1H-pyrazolo[3,4-b]pyrazin-6-yl)azetidin-3-yl)piperidin-1-yl)butanoic acid and 4-((R)-3-(1-(1-((R)-1-(2,4-dichlorophenyl)ethyl)-3-methyl-1H-pyrazolo[3,4-b]pyrazin-6-yl)azetidin-3-yl)piperidin-1-yl)butanoic acid [Example 17] | < 0.1 |
| 4-((S)-3-(1-(1-((R)-1-(2,4-Dichlorophenyl)ethyl)-3-methyl-1H-pyrazolo[3,4-d]pyrimidin-6-yl)azetidin-3-yl)piperidin-1-yl)butanoic acid and 4-((R)-3-(1-(1-((R)-1-(2,4-dichlorophenyl)ethyl)-3-methyl-1H-pyrazolo[3,4-d]pyrimidin-6-yl)azetidin-3-yl)piperidin-1-yl)butanoic acid [Example 20] | 0.1 to 0.5 |
| CCOC(=O)CN1CCCC(C2CN(c3cnc4c(C)nn([C@H](C)c5ccc(Cl)cc5Cl)c4n3)C2)C1 (mixture of isomers) [Example 1, Ethyl 2-((R)-3-(1-(1-((R)-1-(2,4-dichlorophenyl)ethyl)-3-methyl-1H-pyrazolo[3,4-b]pyrazin-6-yl)azetidin-3-yl)piperidin-1-yl)acetate 2,2,2-trifluoroacetate and 2,2,2-trifluoroacetate ethyl 2-((S)-3-(1-(1-((R)-1-(2,4-dichlorophenyl)ethyl)-3-methyl-1H-pyrazolo[3,4-b]pyrazin-6-yl)azetidin-3-yl)piperidin-1-yl)acetate] | > 0.5 |
| Cc1nn([C@H](C)c2ccc(Cl)cc2Cl)c2nc(N3CC(C4CCCN(CCS(N)(=O)=O)C4)C3)cnc12 (mixture of isomers) [Example 4, 2-((R)-3-(1-(1-((R)-1-(2,4-dichlorophenyl)ethyl)-3-methyl-1H-pyrazolo[3,4-b]pyrazin-6-yl)azetidin-3-yl)piperidin-1-yl)ethane-1-sulfonamide and 2-((S)-3-(1-(1-((R)-1-(2,4-dichlorophenyl)ethyl)-3-methyl-1H-pyrazolo[3,4-b]pyrazin-6-yl)azetidin-3-yl)piperidin-1-yl)ethane-1-sulfonamide] | 0.1 to 0.5 |
